{"source": "the NIST ThermoML archive (doi:10.1021/je901030f)", "settings": "101.33 kPa, Crystal, Buoyancy - hydrostatic balance with magnetic suspension - one sinker", "note": "± gives the expanded uncertainty stated by the source."}
{"smiles": "[Cl-].[Na+]", "note": "[sodium chloride]", "values": [{"measurement": "mass density", "setting": "1013 K", "result": "1931.2 ± 9.8", "unit": "kg/m3"}, {"measurement": "mass density", "setting": "1023 K", "result": "1905.8 ± 9.7", "unit": "kg/m3"}, {"measurement": "mass density", "setting": "1033 K", "result": "1890.4 ± 9.6", "unit": "kg/m3"}, {"measurement": "mass density", "setting": "1043 K", "result": "1888.3 ± 9.6", "unit": "kg/m3"}, {"measurement": "mass density", "setting": "1053 K", "result": "1882 ± 9.6", "unit": "kg/m3"}, {"measurement": "mass density", "setting": "1063 K", "result": "1884.9 ± 9.6", "unit": "kg/m3"}, {"measurement": "mass density", "setting": "1073 K", "result": "1889.8 ± 9.6", "unit": "kg/m3"}]}
{"smiles": "[Cl-].[Cs+]", "note": "[cesium chloride]", "values": [{"measurement": "mass density", "setting": "843 K", "result": "3074.5 ± 16", "unit": "kg/m3"}, {"measurement": "mass density", "setting": "853 K", "result": "3067.6 ± 16", "unit": "kg/m3"}, {"measurement": "mass density", "setting": "863 K", "result": "3060.2 ± 16", "unit": "kg/m3"}, {"measurement": "mass density", "setting": "873 K", "result": "3052.4 ± 16", "unit": "kg/m3"}, {"measurement": "mass density", "setting": "883 K", "result": "3046 ± 16", "unit": "kg/m3"}, {"measurement": "mass density", "setting": "893 K", "result": "3040.9 ± 15", "unit": "kg/m3"}, {"measurement": "mass density", "setting": "903 K", "result": "3039.5 ± 15", "unit": "kg/m3"}, {"measurement": "mass density", "setting": "913 K", "result": "3041.8 ± 16", "unit": "kg/m3"}]}
{"smiles": "[Cl-].[K+]", "note": "[potassium chloride]", "values": [{"measurement": "mass density", "setting": "973 K", "result": "1805.8 ± 9.2", "unit": "kg/m3"}, {"measurement": "mass density", "setting": "983 K", "result": "1803.6 ± 9.2", "unit": "kg/m3"}, {"measurement": "mass density", "setting": "993 K", "result": "1800.6 ± 9.2", "unit": "kg/m3"}, {"measurement": "mass density", "setting": "1003 K", "result": "1797.1 ± 9.1", "unit": "kg/m3"}, {"measurement": "mass density", "setting": "1013 K", "result": "1794.5 ± 9.1", "unit": "kg/m3"}, {"measurement": "mass density", "setting": "1023 K", "result": "1793.6 ± 9.1", "unit": "kg/m3"}, {"measurement": "mass density", "setting": "1033 K", "result": "1793.6 ± 9.1", "unit": "kg/m3"}, {"measurement": "mass density", "setting": "1043 K", "result": "1796.6 ± 9.1", "unit": "kg/m3"}]}
{"smiles": "[Cl-].[Rb+]", "note": "[rubidium chloride]", "values": [{"measurement": "mass density", "setting": "903 K", "result": "2578.4 ± 13", "unit": "kg/m3"}, {"measurement": "mass density", "setting": "913 K", "result": "2573.5 ± 13", "unit": "kg/m3"}, {"measurement": "mass density", "setting": "923 K", "result": "2567.8 ± 13", "unit": "kg/m3"}, {"measurement": "mass density", "setting": "933 K", "result": "2562.2 ± 13", "unit": "kg/m3"}, {"measurement": "mass density", "setting": "943 K", "result": "2556.1 ± 13", "unit": "kg/m3"}, {"measurement": "mass density", "setting": "953 K", "result": "2551.7 ± 13", "unit": "kg/m3"}, {"measurement": "mass density", "setting": "963 K", "result": "2548.6 ± 13", "unit": "kg/m3"}, {"measurement": "mass density", "setting": "973 K", "result": "2547.6 ± 13", "unit": "kg/m3"}, {"measurement": "mass density", "setting": "983 K", "result": "2550.3 ± 13", "unit": "kg/m3"}, {"measurement": "mass density", "setting": "993 K", "result": "2556.4 ± 13", "unit": "kg/m3"}]}
